{"source": "patent US9708251B2", "about": "“Unsaturated fatty alcohol alkoxylates from natural oil metathesis” (Stepan Company, priority 2012, dated 2017)", "assay_type_in_all_cases": "physicochemical", "key": {"[1]": {"assay": "Emulsion stability testing of nonionic emulsifiers, Hallcomid solvent series", "design": "key to 24 h separation, appearance / 1 h separation, appearance / 1 h separation, amount: C = creamy; CO = creamy oil; O = oil; GC = gritty cream; NS = no separation; OC = oily cream; key to Spon. (spontaneity): G = good; F = fair; P = poor", "description": "(§1) Nonionic samples contain a low amount of water (<1%) and are prepared as emulsifiable concentrates with three pesticides using two different solvent systems. In the aromatic solvent series, the nonionic sample replaces Toximul® 8240 (castor oil ethoxylate, 36 POE, Stepan), and in the Hallcomid™ (N,N-dimethylcaprylamide/N,N-dimethylcapramide, Stepan) solvent series, the nonionic sample replaces Ninex® MT-630F.\n(§2) Hallcomid Solvent Series.\n(§3) Sample preparation: The surfactants are combined and stirred until homogeneous, with the nonionic sample melted if needed prior to combination. Controls 1-3 are made by using Ninex MT-630F in the amounts indicated instead of the nonionic sample.\n(§4) Emulsion Stability Testing\n(§5) A Mohr pipette is used to feed pesticide/surfactant concentrates to each cylinder."}, "[2]": {"assay": "Emulsion stability testing of nonionic emulsifiers, aromatic solvent series", "design": "key to 24 h separation, appearance / 1 h separation, appearance / 1 h separation, amount: C = creamy; CO = creamy oil; O = oil; GC = gritty cream; NS = no separation; OC = oily cream; key to Spon. (spontaneity): G = good; F = fair; P = poor", "description": "as §1\nSample preparation: Ninate® 60E (calcium alkylbenzenesulfonate, Stepan) and the test sample are stirred until homogeneous. […] Controls 1-3 are made by using Toximul 8240 in the amounts indicated instead of the nonionic sample.\nFormulations: • 1. Bifenthrin, 240 g/L (2.99 g), Aromatic 100 (ExxonMobil, 8.05 g), Ninate 60E (0.38 g), and nonionic sample or Toximul 8240 (0.58 g). • 2. 2,4-D ester, 480 g/L (8.90 g), Exxsol® D-110 (ExxonMobil, 2.50 g), Ninate 60E (0.36 g), and nonionic sample or Toximul 8240 (0.24 g). • 3. Tebuconazole, 360 g/L (4.45 g), N-methyl-2-pyrrolidone (6.35 g), Ninate 60E (0.48 g), nonionic sample or Toximul 8240 (0.72 g).\nas §4, §5"}, "[3]": {"assay": "Surfactant phase behavior study (cross-polarized microscopy)", "conditions": "room temperature", "description": "Phase behavior is observed using an Olympus BH-2 cross-polarized microscope at 100-400× and room temperature (20° C. to 22° C.). The inventive monounsaturated alcohol ethoxylates are compared with their saturated analogs.\nSamples are prepared by diluting the most concentrated product gradually with deionized water. When the surfactant concentration approaches a phase transition, the concentration is varied at 2-4% intervals to estimate the phase boundary. The actives level reported in Table 4 for each phase boundary is within ±5% of the true boundary.\nSamples are loaded between a microscope slide and cover glass and are allowed to equilibrate before observation. Microscopic texture is analyzed and used to determine the phase. For some samples, an AR 2000 rheometer (TA Instruments) is used to measure viscosity at 25° C. to further verify phase behavior."}, "[4]": {"assay": "Emulsion stability testing of nonionic emulsifiers, Hallcomid solvent series", "design": "key: C = creamy; CO = creamy oil; O = oil; GC = gritty cream; NS = no separation; OC = oily cream", "conditions": "Bifenthrin 240 g/L in Hallcomid M-8-10, 34 ppm water", "description": "as §1, §2, §3, §4, §5"}, "[5]": {"conditions": "2,4-D diester 480 g/L in Hallcomid M-8-10, 34 ppm water"}, "[6]": {"conditions": "2,4-D diester 480 g/L in Hallcomid M-8-10, 1000 ppm water"}, "[7]": {"conditions": "Bifenthrin 240 g/L in Hallcomid M-8-10, 34 ppm water"}, "[8]": {"conditions": "Bifenthrin 240 g/L in Hallcomid M-8-10, 1000 ppm water"}, "[9]": {"conditions": "Tebuconazole 360 g/L in Hallcomid M-8-10, 34 ppm water"}, "[10]": {"conditions": "Tebuconazole 360 g/L in Hallcomid M-8-10, 1000 ppm water"}, "[11]": {"conditions": "2,4-D ester 480 g/L in Exxsol D-110, 34 ppm water"}, "[12]": {"conditions": "2,4-D ester 480 g/L in Exxsol D-110, 1000 ppm water"}, "[13]": {"conditions": "Bifenthrin 240 g/L in Aromatic 100, 34 ppm water"}, "[14]": {"conditions": "Bifenthrin 240 g/L in Aromatic 100, 1000 ppm water"}, "[15]": {"conditions": "Tebuconazole 360 g/L in N-methyl-2-pyrrolidone, 34 ppm water"}, "[16]": {"conditions": "Tebuconazole 360 g/L in N-methyl-2-pyrrolidone, 1000 ppm water"}}, "data": [{"compound": "CCC=CCCCCCCCCOCCOCCOCCO", "note": "(mixture of isomers) [A12-7]", "values": [{"measurement": "1 h separation, amount", "setting": "[1]; [5]", "result": 6, "unit": "mL"}, {"measurement": "1 h separation, appearance", "setting": "[1]; [5]", "result": "C"}, {"measurement": "24 h separation, amount", "setting": "[1]; [5]", "result": 10, "unit": "mL"}, {"measurement": "24 h separation, appearance", "setting": "[1]; [5]", "result": "C"}, {"measurement": "Spon. (spontaneity)", "setting": "[1]; [5]", "result": "F"}, {"measurement": "1 h separation, amount", "setting": "[1]; [6]", "result": 6.7, "unit": "mL"}, {"measurement": "1 h separation, appearance", "setting": "[1]; [6]", "result": "C"}, {"measurement": "24 h separation, amount", "setting": "[1]; [6]", "result": 8.2, "unit": "mL"}, {"measurement": "24 h separation, appearance", "setting": "[1]; [6]", "result": "C"}, {"measurement": "Spon. (spontaneity)", "setting": "[1]; [6]", "result": "F"}, {"measurement": "1 h separation, amount", "setting": "[1]; [7]", "result": "NS"}, {"measurement": "Spon. (spontaneity)", "setting": "[1]; [7]", "result": "G"}, {"measurement": "1 h separation, amount", "setting": "[1]; [8]", "result": 10.2, "unit": "mL"}, {"measurement": "1 h separation, appearance", "setting": "[1]; [8]", "result": "C"}, {"measurement": "24 h separation, amount", "setting": "[1]; [8]", "result": "2 O, 3.5 CO"}, {"measurement": "Spon. (spontaneity)", "setting": "[1]; [8]", "result": "F"}, {"measurement": "1 h separation, amount", "setting": "[1]; [9]", "result": 2, "unit": "mL"}, {"measurement": "1 h separation, appearance", "setting": "[1]; [9]", "result": "C"}, {"measurement": "24 h separation, amount", "setting": "[1]; [9]", "result": 5.1, "unit": "mL"}, {"measurement": "24 h separation, appearance", "setting": "[1]; [9]", "result": "C"}, {"measurement": "Spon. (spontaneity)", "setting": "[1]; [9]", "result": "F"}, {"measurement": "1 h separation, amount", "setting": "[1]; [10]", "result": 2.7, "unit": "mL"}, {"measurement": "1 h separation, appearance", "setting": "[1]; [10]", "result": "C"}, {"measurement": "24 h separation, amount", "setting": "[1]; [10]", "result": 4.9, "unit": "mL"}, {"measurement": "24 h separation, appearance", "setting": "[1]; [10]", "result": "C"}, {"measurement": "Spon. (spontaneity)", "setting": "[1]; [10]", "result": "F"}, {"measurement": "1 h separation, amount", "setting": "[2]; [11]", "result": 3.2, "unit": "mL"}, {"measurement": "1 h separation, appearance", "setting": "[2]; [11]", "result": "C"}, {"measurement": "24 h separation, amount", "setting": "[2]; [11]", "result": 5.5, "unit": "mL"}, {"measurement": "24 h separation, appearance", "setting": "[2]; [11]", "result": "C"}, {"measurement": "Spon. (spontaneity)", "setting": "[2]; [11]", "result": "P"}, {"measurement": "1 h separation, amount", "setting": "[2]; [12]", "result": 4.2, "unit": "mL"}, {"measurement": "1 h separation, appearance", "setting": "[2]; [12]", "result": "O"}, {"measurement": "24 h separation, amount", "setting": "[2]; [12]", "result": "0.8 O, 3.3 CO"}, {"measurement": "Spon. (spontaneity)", "setting": "[2]; [12]", "result": "P"}, {"measurement": "1 h separation, amount", "setting": "[2]; [13]", "result": 8.8, "unit": "mL"}, {"measurement": "1 h separation, appearance", "setting": "[2]; [13]", "result": "C"}, {"measurement": "24 h separation, amount", "setting": "[2]; [13]", "result": 6.8, "unit": "mL"}, {"measurement": "24 h separation, appearance", "setting": "[2]; [13]", "result": "C"}, {"measurement": "Spon. (spontaneity)", "setting": "[2]; [13]", "result": "P"}, {"measurement": "1 h separation, amount", "setting": "[2]; [14]", "result": 4.5, "unit": "mL"}, {"measurement": "1 h separation, appearance", "setting": "[2]; [14]", "result": "O"}, {"measurement": "24 h separation, amount", "setting": "[2]; [14]", "result": 4.9, "unit": "mL"}, {"measurement": "24 h separation, appearance", "setting": "[2]; [14]", "result": "O"}, {"measurement": "Spon. (spontaneity)", "setting": "[2]; [14]", "result": "P"}, {"measurement": "1 h separation, amount", "setting": "[2]; [15]", "result": 2.3, "unit": "mL"}, {"measurement": "1 h separation, appearance", "setting": "[2]; [15]", "result": "C"}, {"measurement": "24 h separation, amount", "setting": "[2]; [15]", "result": 3, "unit": "mL"}, {"measurement": "24 h separation, appearance", "setting": "[2]; [15]", "result": "GC"}, {"measurement": "Spon. (spontaneity)", "setting": "[2]; [15]", "result": "P"}, {"measurement": "1 h separation, amount", "setting": "[2]; [16]", "result": 2.6, "unit": "mL"}, {"measurement": "1 h separation, appearance", "setting": "[2]; [16]", "result": "C"}, {"measurement": "24 h separation, amount", "setting": "[2]; [16]", "result": 3.2, "unit": "mL"}, {"measurement": "24 h separation, appearance", "setting": "[2]; [16]", "result": "GC"}, {"measurement": "Spon. (spontaneity)", "setting": "[2]; [16]", "result": "P"}, {"measurement": "combined isotropic phases (clear and opaque), share of the total", "setting": "[3]", "result": "about 66%"}, {"measurement": "Isotropic Clear phase region", "setting": "[3]; in deionized water", "result": "74-100 % Actives Level"}, {"measurement": "Isotropic Opaque phase region", "setting": "[3]; in deionized water", "result": "0-40 % Actives Level"}, {"measurement": "Lamellar phase region", "setting": "[3]; in deionized water", "result": "40-74 % Actives Level"}, {"measurement": "24 h separation, amount", "setting": "[4]", "result": "NS"}]}]}
